Test results reported in patent US20070128217A1 (priority 2003, published 2007).

Assays:
[1] = tested on: rabbit serum obtained by immunizing a rabbit with the SARS-CoV strain Frankfurt 1; format: binding; design: Binding of a rabbit serum to linear peptides / Binding of a rabbit serum to looped peptides / Rabbit serum linear peptides / Rabbit serum looped peptides / Binding of a rabbit serum to linear peptides of protein N of SARS-CoV Urbani (Rabbit serum linear peptides) / Binding of a rabbit serum to looped/cyclic peptides of protein N of SARS-CoV Urbani (Rabbit serum looped peptides): unit not given here
[2] = tested on: antibodies in sera from SARS patients (sera 1a, 1b, 2, 6, 37, 62, London, SARS-yellow, SARS-green); format: binding, human; design: Binding of serum 6 to linear peptides of protein X1 of SARS-CoV Urbani / Binding of serum 37 to linear peptides of protein X1 of SARS-CoV Urbani / Binding of serum 6 to looped/cyclic peptide (PEPSCAN-ELISA) / Binding of serum 37 to looped/cyclic peptide (PEPSCAN-ELISA) / Binding of serum 37 to looped/cyclic peptides of protein X1 of SARS-CoV Urbani / Binding of serum 6 to linear peptides of protein X2 / Binding of serum 37 to linear peptides of protein X2 / Binding of serum 37 to looped/cyclic peptides of protein X2 of SARS-CoV Urbani / Binding of serum 6 to linear peptides of protein M of SARS-CoV Urbani / Binding of serum 37 to linear peptides of protein M of SARS-CoV Urbani / Binding of serum 6 to looped/cyclic peptides of protein M of SARS-CoV Urbani / Binding of serum 37 to looped/cyclic peptides of protein M of SARS-CoV Urbani / Binding of serum 6 to linear peptides of protein X3 of SARS-CoV Urbani / Binding of serum 37 to linear peptides of protein X3 of SARS-CoV Urbani / Binding of serum 37 to looped/cyclic peptides of protein X3 of SARS-CoV Urbani / Binding of serum 6 to linear peptides of protein X4 of SARS-CoV Urbani / Binding of serum 37 to linear peptides of protein X4 of SARS-CoV Urbani / Binding of serum 37 to looped/cyclic peptides of protein X4 of SARS-CoV Urbani / Binding of serum 6 to linear peptides of protein X5 of SARS-CoV Urbani / Binding of serum 37 to linear peptides of protein X5 of SARS-CoV Urbani / Binding of serum 37 to looped/cyclic peptides of protein X5 of SARS-CoV Urbani / Binding of serum 6 to linear peptides of protein N of SARS-CoV Urbani / Binding of serum 37 to linear peptides of protein N of SARS-CoV Urbani / Binding of serum 6 to linear peptide (PEPSCAN-ELISA) / Binding of serum 1a to looped/cyclic peptides of protein N of SARS-CoV Urbani / Binding of serum 1b to looped/cyclic peptides of protein N of SARS-CoV Urbani / Binding of serum 2 to looped/cyclic peptides of protein N of SARS-CoV Urbani / Binding of serum 6 to looped/cyclic peptides of protein N of SARS-CoV Urbani / Binding of serum 37 to looped/cyclic peptides of protein N of SARS-CoV Urbani / Binding of serum 62 to looped/cyclic peptides of protein N of SARS-CoV Urbani / Binding of serum London to looped/cyclic peptides of protein N of SARS-CoV Urbani / Binding of serum SARS-green to looped/cyclic peptides of protein N of SARS-CoV Urbani: unit not given here
[3] = tested on: control sera (pooled serum of ten healthy LUMC hospital workers; commercial negative donor pooled serum from the Dutch bloodbank); format: binding, human; design: Binding of Control serum LUMC to linear peptides / Binding of Control serum Blood-bank to linear peptides / Binding of Control serum LUMC to looped peptides / Binding of Control Serum Blood-Bank to Looped peptides / Binding of Control serum LUMC to linear peptides of the protein M of SARS-CoV Urbani / Binding of Control serum Blood-bank to linear peptides of the protein M of SARS-CoV Urbani / Binding of Control serum LUMC to looped peptides of the protein M of SARS-CoV Urbani / Binding of Control Serum Blood-Bank to Looped peptides of the protein M of SARS-CoV Urbani: unit not given here

FLQCINACRIIMRCW
Binding of a rabbit serum to linear peptides [1]: 0.1 | Binding of a rabbit serum to looped peptides [1]: 0.8 | Binding of serum 1a to linear peptides of protein X1 of SARS-CoV Urbani [2]: 0.8 | Binding of serum 1a to looped/cyclic peptide (PEPSCAN-ELISA) [2]: 0.6 | Binding of serum 1b to linear peptides of protein X1 of SARS-CoV Urbani [2]: 0.6 | Binding of serum 1b to looped/cyclic peptide (PEPSCAN-ELISA) [2]: 0.4 | Binding of serum 2 to linear peptides of protein X1 of SARS-CoV Urbani [2]: 0.6 | Binding of serum 2 to looped/cyclic peptide (PEPSCAN-ELISA) [2]: 0.5 | Binding of serum 6 to linear peptides of protein X1 of SARS-CoV Urbani [2]: 0.7 | Binding of serum 6 to looped/cyclic peptide (PEPSCAN-ELISA) [2]: 0.7 | Binding of serum 37 to linear peptides of protein X1 of SARS-CoV Urbani [2]: 0.7 | Binding of serum 37 to looped/cyclic peptide (PEPSCAN-ELISA) [2]: 0.6 | Binding of serum 62 to linear peptides of protein X1 of SARS-CoV Urbani [2]: 0.6 | Binding of serum 62 to looped/cyclic peptide (PEPSCAN-ELISA) [2]: 0.6 | Binding of serum London to linear peptides of protein X1 of SARS-CoV Urbani [2]: 0.3 | Binding of serum London to looped/cyclic peptide (PEPSCAN-ELISA) [2]: 1.0 | Binding of serum SARS-green to linear peptides of protein X1 of SARS-CoV Urbani [2]: 0.3 | Binding of serum SARS-green to looped/cyclic peptide (PEPSCAN-ELISA) [2]: 0.2 | Binding of serum SARS-yellow to linear peptides of protein X1 of SARS-CoV Urbani [2]: 0.4 | Binding of serum SARS-yellow to looped/cyclic peptide (PEPSCAN-ELISA) [2]: 0.6 | Binding of Control Serum Blood-Bank to Looped peptides [3]: 0.6 | Binding of Control serum Blood-bank to linear peptides [3]: 0.8 | Binding of Control serum LUMC to linear peptides [3]: 0.9 | Binding of Control serum LUMC to looped peptides [3]: 0.6

IQQWIQFMMSRRRLL
Binding of a rabbit serum to linear peptides [1]: 0.4 | Binding of a rabbit serum to looped peptides [1]: 1.0 | Binding of serum 1a to linear peptides of protein X2 [2]: 0.6 | Binding of serum 1a to looped/cyclic peptides of protein X2 of SARS-CoV Urbani [2]: 0.4 | Binding of serum 1b to linear peptides of protein X2 [2]: 0.5 | Binding of serum 1b to looped/cyclic peptides of protein X2 of SARS-CoV Urbani [2]: 0.4 | Binding of serum 2 to linear peptides of protein X2 [2]: 0.4 | Binding of serum 2 to looped/cyclic peptides of protein X2 of SARS-CoV Urbani [2]: 0.5 | Binding of serum 6 to linear peptides of protein X2 [2]: 0.6 | Binding of serum 6 to looped/cyclic peptides of protein X2 of SARS-CoV Urbani [2]: 0.4 | Binding of serum 37 to linear peptides of protein X2 [2]: 0.6 | Binding of serum 37 to looped/cyclic peptides of protein X2 of SARS-CoV Urbani [2]: 0.5 | Binding of serum 62 to linear peptides of protein X2 [2]: 0.5 | Binding of serum 62 to looped/cyclic peptides of protein X2 of SARS-CoV Urbani [2]: 0.7 | Binding of serum London to linear peptides of protein X2 [2]: 0.4 | Binding of serum London to looped/cyclic peptides of protein X2 of SARS-CoV Urbani [2]: 0.2 | Binding of serum SARS-green to linear peptides of protein X2 [2]: 0.3 | Binding of serum SARS-green to looped/cyclic peptides of protein X2 of SARS-CoV Urbani [2]: 0.4 | Binding of serum SARS-yellow to linear peptides of protein X2 [2]: 0.8 | Binding of serum SARS-yellow to looped/cyclic peptides of protein X2 of SARS-CoV Urbani [2]: 0.5 | Binding of Control Serum Blood-Bank to Looped peptides [3]: 0.5 | Binding of Control serum Blood-bank to linear peptides [3]: 0.7 | Binding of Control serum LUMC to linear peptides [3]: 0.5 | Binding of Control serum LUMC to looped peptides [3]: 0.6

CKHKKVSTNLCTHSF
Binding of a rabbit serum to linear peptides [1]: 0.3 | Binding of a rabbit serum to looped peptides [1]: 0.5 | Binding of serum 1a to looped/cyclic peptides of protein X2 of SARS-CoV Urbani [2]: 0.7 | Binding of serum 1b to looped/cyclic peptides of protein X2 of SARS-CoV Urbani [2]: 0.7 | Binding of serum 2 to looped/cyclic peptides of protein X2 of SARS-CoV Urbani [2]: 0.4 | Binding of serum 6 to looped/cyclic peptides of protein X2 of SARS-CoV Urbani [2]: 0.3 | Binding of serum 37 to looped/cyclic peptides of protein X2 of SARS-CoV Urbani [2]: 0.6 | Binding of serum 62 to looped/cyclic peptides of protein X2 of SARS-CoV Urbani [2]: 0.5 | Binding of serum London to looped/cyclic peptides of protein X2 of SARS-CoV Urbani [2]: 0.3 | Binding of serum SARS-green to looped/cyclic peptides of protein X2 of SARS-CoV Urbani [2]: 0.4 | Binding of serum SARS-yellow to looped/cyclic peptides of protein X2 of SARS-CoV Urbani [2]: 0.9 | Recognition of the peptide by sera of SARS-CoV infected individuals, and form (linear, looped/cyclic) in which it is recognized [2]: recognized in linear form | Binding of Control Serum Blood-Bank to Looped peptides [3]: 0.1 | Binding of Control serum Blood-bank to linear peptides [3]: 0.8 | Binding of Control serum LUMC to linear peptides [3]: 1.0 | Binding of Control serum LUMC to looped peptides [3]: 0.4
